{"source": "paper PMC3025057", "about": "(Experimental parasitology, 2010)", "molecular_target": "Trypanosoma brucei hexokinase 1 (TbHK1) (Trypanosoma brucei, UniProt Q38C42)", "assay": "G6PDH-coupled hexokinase assay with recombinant enzyme", "assay_type": "biochemical", "data": [{"compound": "O=c1c(O)c(-c2ccc(O)c(O)c2)oc2cc(O)cc(O)c12", "note": "[QCN, 3,3′,4′,5,7-pentahydroxyflavone]", "values": [{"measurement": "Ki", "result": "2900 ± 900", "unit": "nM"}]}]}
